Experimental findings from US20260248833A1, “PYRIMIDINE NUCLEOSIDE TREATMENTS” (The Children`s Medical Center Corporation, priority 2022, published 2026) are described below.

Holding throughout (format): biochemical
In experiment [1] the target is T1, immunopurified T-free telomerase (Homo sapiens, UniProt O14746).
T1 construct: made in house; host or cells: TERC-null 293T cells, transient transfection; anti-HA magnetic bead immunopurification, enzyme used on beads
The experiment in a line: Direct telomerase assay on immunopurified T-free telomerase. On the procedure: Telomerase immunopurification: 293T TERC-null cells were transfected as described above with 3×HA-TERT and TERC/EGFP in 10-cm diameter dishes with reagents scaled up proportional to cell growth area. Two days after transfection, cells were harvested, washed once in PBS, and lysed in TRAPezeTM1×CHAPS Lysis Buffer (Roche) supplemented with RNasin Plus (Promega) and HALT protease inhibitor cocktail (Thermo Fisher), followed by incubation on ice for 30 minutes and precipitation of insoluble material by centrifugation. Immunoprecipitation was performed as described previously with minor modifications. Briefly, 75 μl of anti-HA magnetic beads (Sigma-Aldrich, SAE0197, mouse IgG1 monoclonal antibody, Clone HA-7, 50% beads by volume) were added to clarified lysates followed by 2 hours incubation at 4° C. while rotating. […] Images were quantified using ImageJ as follows. For total telomerase activity measurement (FIG. 25f), telomerase product signal in a lane was quantified and normalized to the loading control band signal within the same lane. […] For the analysis of telomerase repeat intensity (FIG. 25x), the signal of each repeat (defined as the three consecutive intense bands in the laddering pattern, as indicated in FIG. 25d), was quantified and first normalized to the loading control band signal for that lane. […]

For another experiment, the target named is T2, T-free telomerase (Homo sapiens, UniProt O14746).
T2 construct: expressed in transfected cells; host or cells: TERC-null 293T cells transfected with TERT and T-free TERC vectors
T2 sequence (O14746 whole entry): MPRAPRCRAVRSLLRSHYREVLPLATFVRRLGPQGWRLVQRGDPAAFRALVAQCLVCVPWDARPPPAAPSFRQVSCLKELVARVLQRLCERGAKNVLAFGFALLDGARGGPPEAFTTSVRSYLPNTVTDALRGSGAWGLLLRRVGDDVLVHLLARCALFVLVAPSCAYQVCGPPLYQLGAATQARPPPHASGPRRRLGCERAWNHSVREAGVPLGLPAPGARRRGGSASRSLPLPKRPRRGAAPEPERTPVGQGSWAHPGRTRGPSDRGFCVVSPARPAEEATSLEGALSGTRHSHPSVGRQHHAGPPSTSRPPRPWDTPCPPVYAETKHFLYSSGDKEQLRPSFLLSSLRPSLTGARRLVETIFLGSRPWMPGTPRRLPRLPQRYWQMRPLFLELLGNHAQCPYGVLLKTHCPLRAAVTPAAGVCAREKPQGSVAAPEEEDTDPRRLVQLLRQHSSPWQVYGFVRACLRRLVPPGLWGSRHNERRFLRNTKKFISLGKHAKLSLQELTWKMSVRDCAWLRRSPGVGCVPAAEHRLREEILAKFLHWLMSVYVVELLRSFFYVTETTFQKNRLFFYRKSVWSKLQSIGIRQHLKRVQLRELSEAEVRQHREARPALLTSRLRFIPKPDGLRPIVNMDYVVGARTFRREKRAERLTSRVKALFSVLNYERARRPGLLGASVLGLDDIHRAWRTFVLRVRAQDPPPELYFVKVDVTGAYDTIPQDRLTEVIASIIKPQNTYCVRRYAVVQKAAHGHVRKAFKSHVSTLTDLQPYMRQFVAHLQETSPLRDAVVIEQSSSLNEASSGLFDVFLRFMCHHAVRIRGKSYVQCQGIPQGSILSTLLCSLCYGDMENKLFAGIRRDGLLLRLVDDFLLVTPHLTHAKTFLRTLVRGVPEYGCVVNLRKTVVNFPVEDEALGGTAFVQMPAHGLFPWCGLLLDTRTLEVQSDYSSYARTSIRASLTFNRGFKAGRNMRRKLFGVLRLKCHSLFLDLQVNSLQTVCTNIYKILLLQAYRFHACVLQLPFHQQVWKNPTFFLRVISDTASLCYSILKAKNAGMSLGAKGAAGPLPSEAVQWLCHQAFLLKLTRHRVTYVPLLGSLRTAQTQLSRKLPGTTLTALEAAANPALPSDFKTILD
T2 sequence (O60832 whole entry partner): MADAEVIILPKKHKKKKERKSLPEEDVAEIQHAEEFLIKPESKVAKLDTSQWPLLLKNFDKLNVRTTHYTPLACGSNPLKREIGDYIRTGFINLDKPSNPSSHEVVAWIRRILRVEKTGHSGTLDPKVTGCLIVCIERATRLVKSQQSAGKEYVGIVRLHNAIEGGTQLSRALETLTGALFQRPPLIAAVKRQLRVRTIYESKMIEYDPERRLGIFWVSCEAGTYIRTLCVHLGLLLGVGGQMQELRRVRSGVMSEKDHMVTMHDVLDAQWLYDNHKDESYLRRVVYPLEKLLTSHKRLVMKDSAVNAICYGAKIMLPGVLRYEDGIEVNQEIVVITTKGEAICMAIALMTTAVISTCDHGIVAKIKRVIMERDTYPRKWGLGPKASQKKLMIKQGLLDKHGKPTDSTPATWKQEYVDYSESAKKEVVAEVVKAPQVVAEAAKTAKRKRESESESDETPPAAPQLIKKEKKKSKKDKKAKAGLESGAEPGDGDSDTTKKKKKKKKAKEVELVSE
T2 sequence (Q9NPE3 whole entry partner): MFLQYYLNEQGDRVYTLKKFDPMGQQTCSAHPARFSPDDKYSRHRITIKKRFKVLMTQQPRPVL
T2 sequence (Q9NX24 whole entry partner): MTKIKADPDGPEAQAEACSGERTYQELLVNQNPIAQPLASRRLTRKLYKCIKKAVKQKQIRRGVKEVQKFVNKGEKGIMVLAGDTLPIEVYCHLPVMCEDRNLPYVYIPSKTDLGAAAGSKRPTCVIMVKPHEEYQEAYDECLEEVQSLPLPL
T2 sequence (Q9NY12 whole entry partner): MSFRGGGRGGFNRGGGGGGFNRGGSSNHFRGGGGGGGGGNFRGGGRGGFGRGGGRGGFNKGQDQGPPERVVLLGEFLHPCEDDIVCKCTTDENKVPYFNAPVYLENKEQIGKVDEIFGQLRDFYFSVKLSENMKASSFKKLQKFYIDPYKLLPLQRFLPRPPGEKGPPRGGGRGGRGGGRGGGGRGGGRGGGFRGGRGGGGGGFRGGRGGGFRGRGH
The experiment in a line: Modified GGAAAG TRAP assay on T-free super-telomerase extracts. To be noted: increasing dTTP levels. On the procedure:
(§1) TRAP assay: cell extracts for TRAP assays were made using TRAPeze™1×CHAPS Lysis Buffer (Roche) supplemented with RNASEin (Promega). Standard TRAP reactions (in FIG. 25a) were performed as described, with cell input normalized across samples using the Bio-Rad DC assay. TRAP assays were modified to enable unique dNTP concentrations in telomerase reactions from PCR reactions (FIG. 25) as follows: reactions were assembled with 1×TRAP buffer (20 mM Tris-HCl, pH 8.3; 1.5 mM MgCl2; 63 mM KCl; 0.05% Tween 20; 1 mM EGTA), TS, ACX, TNST, and NT primers as described (see Primers/Oligos below), dNTPs were added at physiologic concentrations (dATP 24 μM, dGTP 5.2 μM, dCTP 29 μM, dTTP 37 μM) unless otherwise mentioned in the figure legend, followed by telomerase extracts. TRAP assays were modified to detect GGAAAG repeats using the following primers: TS GGAAAG, TNST GGAAAG, ACX GGAAAG, and NT (see Primers/Oligos below). After addition of telomerase extracts, reactions were incubated for 30 minutes at 30° C. followed by heat inactivation at 95° C. for 5 minutes. […] Images were quantified for a given lane using ImageJ by measuring the signal of the telomerase repeat sized products divided by the signal of the internal control band for the lane, normalized to the same ratio for the untreated sample(s) in a given experiment. […]

The target of another experiment is T3, telomerase (Homo sapiens, UniProt O14746).
T3 construct: expressed in transfected cells; host or cells: TERC-null 293T cells transfected with TERT and TERC expression vectors
T3 sequence (O14746 whole entry): as the sequence (O14746 whole entry) above
T3 sequence (O60832 whole entry partner): as the sequence (O60832 whole entry partner) above
T3 sequence (Q9NPE3 whole entry partner): as the sequence (Q9NPE3 whole entry partner) above
T3 sequence (Q9NX24 whole entry partner): as the sequence (Q9NX24 whole entry partner) above
T3 sequence (Q9NY12 whole entry partner): as the sequence (Q9NY12 whole entry partner) above
The experiment can be described thus: Modified TRAP assay with exogenous dTTP on super-telomerase extracts. To be noted: increasing levels of exogenous dTTP. On the procedure: as §1

T1 sequence (O14746 whole entry): as the sequence (O14746 whole entry) above
T1 sequence (O60832 whole entry partner): as the sequence (O60832 whole entry partner) above
T1 sequence (Q9NPE3 whole entry partner): as the sequence (Q9NPE3 whole entry partner) above
T1 sequence (Q9NX24 whole entry partner): as the sequence (Q9NX24 whole entry partner) above
T1 sequence (Q9NY12 whole entry partner): as the sequence (Q9NY12 whole entry partner) above

As for `Cc1cn([C@H]2C[C@H](O)[C@@H](COP(=O)(O)OP(=O)(O)OP(=O)(O)O)O2)c(=O)[nH]c1=O` [dTTP, dT triphosphate], the “T-free telomerase activity, levels higher than without dTTP” value in experiment [1] (at a concentration of 25 μM dTTP) is “approximately 50%”. For the same molecule, the T-free telomerase activity entry in experiment [1] (incorporation of α-32P-dATP, dTTP added) is recorded as “enhanced T-free telomerase activity in a dose-dependent manner”; on T-free telomerase, “increased T-free telomerase activity with increasing dTTP levels”. In addition, the telomerase activity result on telomerase is reported as “enhanced telomerase activity”.
